According to patent publication US20230149383A1, “QUINOLINE COMPOUNDS FOR TREATING LUNG, LIVER, AND KIDNEY DISEASES, DISORDERS, OR CONDITIONS” (Aldeyra Therapeutics, Inc., priority 2020, published 2023):

Experiments:
[1] = test system: large panel of ligand binding assays, ion channel assays, transporter assays, and enzyme inhibition studies; experiment: Secondary pharmacology studies (ligand binding, ion channel, transporter, enzyme inhibition panel)
Experimental: (§1) I-1 plasma concentrations are projected to have reached at least 10 μM, exceeding reported levels of RASP in humans with inflammatory diseases. The data support the potential of I-1, and RASP inhibition in general, in treating inflammation and fibrosis.

Genotoxicity studies = experiment: Genotoxicity studies
Experimental: as §1

[2] = First-in-human Phase 1 trial (SAD/MAD), safety; type: in vivo
Experimental: The adverse event profile was favorable compared to placebo: A total of 6 (9.4%) subjects receiving the test compound had treatment emergent adverse events, compared to 4 (19.1%) subjects who received placebo. […] No changes in serum glucose were observed. […] There were no subjects who had QTcF >500 msec or a change of >60 msec from baseline. […] Three of these five subjects were in the SAD portion of the study (one each in the 100 mg, 200 mg, and 700 mg dose cohorts) and the remaining two subjects were in the MAD portion of the study (one each in the 150 mg BID and 300 mg BID dose cohorts).
Clinical development of compound I-1 in inflammatory disease is supported by safety testing in human healthy volunteers in single and multiple ascending dose (10 day), placebo-controlled Phase I trials.

[3] = test system: human precision cut liver slices (PCLS); experiment: Alcoholic liver injury model in precision-cut liver slices (PCLS); type: cell-based
Excerpt: Alcohol abuse results in liver injury, including accumulation of RASP and an increase in inflammation. It is known to cause abnormalities in liver structure and function, including fatty liver, apoptosis, necrosis, fibrosis, and cirrhosis. In order to investigate the utility of the quinoline compounds described herein for reduction of RASP and/or treating liver and associated inflammatory disorders, we employed a known in vitro culture model that employs precision-cut liver slices (PCLS) to measure alcohol-induced liver injury. For this experiment, we used a liver sample donated from a […] with fibrosis. This experiment may also be performed on rat PCLS (procedure provided below). The model is described, for example in Klassen, L. W. et al., Biochemical Pharmacology 76 (2008), 426-436. In this model, PCLS retains excellent viability as determined by lactate dehydrogenase and adenosine triphosphate (ATP) levels over a 96-h period of incubation. The major enzymes of ethanol detoxification (alcohol dehydrogenase, aldehyde dehydrogenase, and cytochrome P4502E1), remain active and PCLS readily metabolizes ethanol and produces acetaldehyde. […] These PCLS secrete albumin, and albumin secretion was decreased by ethanol treatment. All of these impairments are reversed following the addition of 4-methylpyrazole, which is an inhibitor of ethanol metabolism. Therefore, this model system appears to mimic the ethanol-induced changes in the liver that have been previously reported in human and animal studies, and appears to be a useful model for the study of alcoholic liver disease.
Materials and Methods. For human PCLS studies, slices were cut as described below and incubated with conditions below for 24, 48, or 72 hours. Media were changed daily. • Control Media • 25 mM Ethanol Media. • Control Media+10 μM compound I-1 (7 μl of the 5 mg/ml I-1 solution in 1.7 ml) • Ethanol Media+10 μM compound I-1
Incubation of slices with ethanol is performed as follows. Following pre-incubation with WE, slices are incubated with media only (control), media+25 mM ethanol (ethanol), media+25 mM ethanol+0.50 mM 4-methylpyrazole as an optional positive control (ethanol +4-MP), media+0.50 mM 4-methylpyrazole (control+4-MP), control media+test compound, or ethanol media+test compound. The addition of 4-MP may be used in these studies as it is a general inhibitor of ethanol metabolism. The slices are placed in the Dynamic Organ Culture incubator and cultured at 37 C for up to 96 h, and every 24 h the appropriate media is replenished. In order to determine the concentration of ethanol and acetaldehyde in the media, the supernatant is analyzed using headspace gas chromatography.
Viability assays are performed as follows. Slice viability is determined by measuring adenosine triphosphate (ATP) and lactate dehydrogenase (LDH) levels. For the ATP assay, slices are harvested at the appropriate times, placed into 70% ethanol/2 mM EDTA, flash frozen, and stored at −70 C until assayed. Samples are thawed on ice, sonicated, and diluted in 0.1 M Tris-HCl/2 mM EDTA prior to use in a standard ATP assay kit.
For LDH determination, supernatant is collected and frozen at −70 C. The slice is solubilized in WE containing 2% Triton X-100 and LDH determined using a cytotoxicity detection kit (LDH) (e.g., available from Roche Applied Science, Penzberg, Germany). The absorbance of the samples is measured at 490 nm. All protein concentrations from the slices are determined using a BCA protein assay kit. To calculate the % Cytotoxicity at subsequent 24 h time points, the LDH in the media is divided by the total LDH in the PCLS and multiplied by 100.
Triglyceride analysis is performed as follows. At indicated time points, supernatant is removed and slices are washed in PBS (pH 7.4). Slices are placed in PBS containing 0.5% Triton-X100, sonicated, and the equivalent of […] of protein assayed for triglycerides using the serum triglyceride kit. […]

- risk of off-target effects [1]: low risk of off-target effects
SMILES: CC(C)(O)c1nc2ccccc2cc1N [I-1]
- potential for mutagenicity or clastogenicity (Genotoxicity studies): no potential for mutagenicity or clastogenicity
- risk of genotoxicity (Genotoxicity studies; preclinical studies): low risk of genotoxicity
- overall safety and tolerability ([2]; Phase 1 SAD and MAD (10 day), up to 600 mg BID): safe and tolerable
- subjects with QTcF change of >30 msec from baseline ([2]; SAD 100, 200, 700 mg, MAD 150 mg BID, 300 mg BID cohorts): Five
- QTcF prolongation ([2]; in vivo): did not lead to QTcF prolongation
- changes in heart rate, blood pressure, respiratory rate, pulse oximetry, or temperature ([2]; in vivo): No clinically meaningful changes
- changes in hepatic or renal analytes (ALT, AST, ALP, amylase, GGT, bilirubin, creatinine kinase, creatinine) ([2]; in vivo): No clinically meaningful changes
- changes in serum glucose ([2]; in vivo): No changes
- hematological changes ([2]; in vivo): No clinically significant hematological changes
- interruptions or discontinuations of study drug administration ([2]; in vivo): no interruptions or discontinuations
- subjects with QTcF >500 msec or a change of >60 msec from baseline ([2]; in vivo): no subjects
- subjects with treatment emergent adverse events ([2]; subjects receiving the test compound, number (%)): 6 (9.4%) subjects
- overall effect on cellular stress and toxicity in response to ethanol [3]: acts as a chemoprotectant to reduce cellular stress and toxicity
- triglyceride levels ([3]; 10 μM I-1 + 25 mM ethanol, 24, 48, 72 h): significantly decreased
- acetaldehyde levels ([3]; 10 μM I-1, 24, 48, 72 h): appear to be decreased
- ATP levels ([3]; 10 μM I-1, 24 and 48 hours): remain constant
- ATP levels ([3]; 10 μM I-1, 72 hours): increase
- cytotoxicity (LDH) levels ([3]; ethanol treated + 10 μM I-1): continued to drop
